Test systems include IGROV1 ovarian; SK-MEL-28 melanoma; HOP-92 NSCLC; HS 578T breast; MOLT-4 leukemia; SK-MEL-5 melanoma; A498 renal; SW-620 colon; SN12C renal; TK-10 renal.
Common to all, as to assay: NCI tumour cell line growth inhibition, 48 h

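Cultured in 96-well plates, cells were exposed to test compound for 48 hours across five concentrations. Abbreviation: GI50, concentration required for 50% inhibition of growth. At the TGI there is no net growth.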

Consider `O=C1C(OCCOc2ccccc2)=C(OCCOc2ccccc2)C(=O)c2ccccc21`, for which the GI50 in the assay on IGROV1 ovarian is > 100 µM; with SK-MEL-28 melanoma, 16.5 µM; with HOP-92 NSCLC, 1.21 µM; in the assay with HS 578T breast, 8.96 µM; with MOLT-4 leukemia it was > 100 µM; in the assay with SK-MEL-5 melanoma, 1.92 µM. Further, the GI50 was 18.2 µM in the assay with A498 renal, 4.7 µM in the assay on SW-620 colon, 4.38 µM with SN12C renal and > 100 µM with TK-10 renal. The TGI with IGROV1 ovarian is > 100 µM; with SK-MEL-28 melanoma it was > 100 µM; in the assay on HOP-92 NSCLC it was > 100 µM; in the assay on HS 578T breast it was > 100 µM; in the assay on MOLT-4 leukemia, > 100 µM; in the assay on SK-MEL-5 melanoma it was 4.86 µM. The TGI in the assay with A498 renal was > 100 µM; in the assay with SW-620 colon it was > 100 µM; in the assay on SN12C renal, 52 µM; in the assay on TK-10 renal, > 100 µM.

As to `C=CCC1(C)CCCN(Cc2ccccc2)C1=O` (stereo not given), the TGI is 3.41 µM in the assay on IGROV1 ovarian; > 10 µM in the assay with SK-MEL-28 melanoma; > 10 µM with HOP-92 NSCLC; > 10 µM with HS 578T breast; > 10 µM with MOLT-4 leukemia; 1.48 µM with SK-MEL-5 melanoma. Besides, the TGI in the assay on A498 renal is 3.91 µM; in the assay with SW-620 colon it was > 10 µM; in the assay on SN12C renal it was > 10 µM; with TK-10 renal, > 10 µM.

Take `O=C(Nc1ccccc1OC(=O)c1ccccc1)c1ccccc1`: the GI50 was 2.91 µM with IGROV1 ovarian; > 100 µM in the assay with SK-MEL-28 melanoma; 23.1 µM in the assay with HOP-92 NSCLC; 4.72 µM in the assay on HS 578T breast; 3.55 µM in the assay on MOLT-4 leukemia; 31.5 µM in the assay on SK-MEL-5 melanoma. Moreover, the GI50 is 12.7 µM in the assay on A498 renal, 4.25 µM with SW-620 colon, 28.1 µM with SN12C renal and 31.5 µM in the assay on TK-10 renal. Besides, the TGI in the assay on IGROV1 ovarian is 17.1 µM; in the assay with SK-MEL-28 melanoma, > 100 µM; in the assay with HOP-92 NSCLC, > 100 µM; with HS 578T breast, > 100 µM; with MOLT-4 leukemia, > 100 µM; with SK-MEL-5 melanoma it was > 100 µM. The TGI is 60.1 µM with A498 renal, > 100 µM with SW-620 colon, > 100 µM in the assay with SN12C renal and > 100 µM in the assay with TK-10 renal.

Take `Oc1c(-c2cc(C(F)(F)F)[nH]n2)cc(Cl)c(OCc2ccc(Cl)cc2)c1-c1ccc(Cl)c(C(F)(F)F)c1`: the GI50 in the assay on IGROV1 ovarian is 0.965 µM; with SK-MEL-28 melanoma it was 0.392 µM; in the assay with HOP-92 NSCLC, 0.111 µM; with HS 578T breast, 0.344 µM; in the assay on MOLT-4 leukemia, 0.903 µM; in the assay on SK-MEL-5 melanoma, 0.265 µM. Further, the GI50 in the assay with A498 renal was 0.0996 µM; in the assay on SW-620 colon, 0.298 µM; in the assay on SN12C renal, 0.153 µM; in the assay with TK-10 renal, 0.56 µM. In addition, the TGI was 5.93 µM in the assay with IGROV1 ovarian; 2.13 µM with SK-MEL-28 melanoma; 0.542 µM in the assay on HOP-92 NSCLC; 2.85 µM with HS 578T breast; 3.2 µM in the assay on MOLT-4 leukemia; 0.941 µM in the assay with SK-MEL-5 melanoma. For the same molecule, the TGI was determined as 0.484 µM in the assay on A498 renal, 4.15 µM in the assay with SW-620 colon, 3.31 µM in the assay with SN12C renal and 5.28 µM in the assay on TK-10 renal.

Regarding `Nc1n[nH]c2ccc([C@@H]3Nc4cc5c(cc4[C@H]4C6CCC(C6)[C@@H]34)C(=O)NC5)cc12` (stereo not given in full), the GI50 in the assay with IGROV1 ovarian was 0.417 µM; with SK-MEL-28 melanoma, 4.17 µM; with HOP-92 NSCLC, 0.375 µM; in the assay on HS 578T breast it was 0.484 µM; in the assay with MOLT-4 leukemia, 0.415 µM; in the assay on SK-MEL-5 melanoma, 0.232 µM. For the same molecule, the GI50 was 0.13 µM with A498 renal, 0.362 µM with SW-620 colon, 0.473 µM in the assay on SN12C renal and 70.1 µM with TK-10 renal. The TGI in the assay with IGROV1 ovarian is > 100 µM; in the assay on SK-MEL-28 melanoma, > 100 µM; in the assay with HOP-92 NSCLC, > 100 µM; in the assay on HS 578T breast, > 100 µM; in the assay on MOLT-4 leukemia, > 100 µM; in the assay on SK-MEL-5 melanoma, 0.612 µM. Also, the TGI in the assay with A498 renal is 0.737 µM; in the assay on SW-620 colon, > 100 µM; with SN12C renal, > 100 µM; with TK-10 renal it was > 100 µM.

Consider `C/C(=N\O)c1cccc(Nc2cc(-n3ccnc3)c3ccccc3n2)c1`, for which the GI50 in the assay on IGROV1 ovarian is 4.3 µM; in the assay with SK-MEL-28 melanoma it was 14.3 µM; in the assay on HOP-92 NSCLC, 30.2 µM; in the assay with HS 578T breast it was 17.2 µM; in the assay on MOLT-4 leukemia it was 12.6 µM; in the assay on SK-MEL-5 melanoma it was 13.9 µM. The GI50 in the assay with A498 renal is 21.6 µM; in the assay on SW-620 colon it was 19.6 µM; in the assay on SN12C renal, 16.2 µM; in the assay on TK-10 renal, 15.6 µM. For the same molecule, the TGI in the assay with IGROV1 ovarian turned out to be 20.5 µM; in the assay on SK-MEL-28 melanoma it was 29.8 µM; in the assay with HOP-92 NSCLC, 92.1 µM; in the assay with HS 578T breast it was 60.9 µM; in the assay on MOLT-4 leukemia, 37.5 µM; in the assay on SK-MEL-5 melanoma it was 27.2 µM. Moreover, the TGI in the assay with A498 renal was determined as 39.1 µM; with SW-620 colon, 42.1 µM; in the assay on SN12C renal it was 38.2 µM; with TK-10 renal, 38.8 µM.

For the molecule `O=C(O)c1cc(CCc2cc(O)ccc2O)ccc1O`, the TGI with IGROV1 ovarian, in the assay on SK-MEL-28 melanoma, in the assay with HOP-92 NSCLC, in the assay with HS 578T breast, with MOLT-4 leukemia and in the assay with SK-MEL-5 melanoma was > 100 µM each time. For the same molecule, the TGI with A498 renal, with SW-620 colon, in the assay with SN12C renal and with TK-10 renal was > 100 µM in each case.

On to `Oc1cccc2c1NCCC2`, for which the GI50 is 0.745 µM in the assay with IGROV1 ovarian; 2.19 µM in the assay with SK-MEL-28 melanoma; 0.0231 µM in the assay with HOP-92 NSCLC; 0.183 µM with HS 578T breast; 1.27 µM in the assay with MOLT-4 leukemia; 0.109 µM with SK-MEL-5 melanoma. The GI50 in the assay with A498 renal is 2.57 µM; with SW-620 colon, 0.133 µM; in the assay with SN12C renal, 0.121 µM; in the assay with TK-10 renal, 1.96 µM. In addition, the TGI was > 100 µM with IGROV1 ovarian; > 100 µM in the assay on SK-MEL-28 melanoma; 0.066 µM in the assay with HOP-92 NSCLC; > 100 µM with HS 578T breast; > 100 µM in the assay on MOLT-4 leukemia; 1.85 µM with SK-MEL-5 melanoma. In addition, the TGI in the assay with A498 renal was 9.07 µM; in the assay with SW-620 colon, > 100 µM; with SN12C renal, > 76.2 µM; in the assay on TK-10 renal it was > 100 µM.

(Values after PubChem BioAssay (NCI).)
